Tested on: Eimeria tenella
Test: Experimental 3: anticoccidial effect in chicks inoculated with drug-resistant wild strain
Protocol: The following experiment was carried out with a wild strain resistant to the conventional anticoccidial drugs.
The oocysts, predominantly of Eimeria tenella, obtained from a wild strain were used to inoculate chicks at a rate of 10×10^5 sporulated oocysts per bird. […] The battery test procedure was repeated.

NC(=NN=Cc1ccc(Cl)cc1)NN=Cc1ccc(Cl)cc1 [Lobenidine]
At end of experiment/At start of experiment (No. of birds) (33.0 ppm): 3/3
Relative Weight gain (33.0 ppm): 26.4%
The pathological change of caecum: birds scored + (33.0 ppm): 0
The pathological change of caecum: birds scored ++ (33.0 ppm): 0
The pathological change of caecum: birds scored +++ (33.0 ppm): 0
The pathological change of caecum: birds scored ++++ (33.0 ppm): 3
The pathological change of caecum: birds scored - (33.0 ppm): 0
No. of blood drops/per bird (33.0 ppm, day 4): 2.3
No. of blood drops/per bird (33.0 ppm, day 5): 9.3
No. of deaths (33.0 ppm, day 5): 0
No. of blood drops/per bird (33.0 ppm, day 6): 9.3
No. of deaths (33.0 ppm, day 6): 0
No. of blood drops/per bird (33.0 ppm, day 7): 6.0
No. of deaths (33.0 ppm, day 7): 0
No. of deaths (33.0 ppm, day 8): 0
At end of experiment/At start of experiment (No. of birds) (66.0 ppm): 3/3
Relative Weight gain (66.0 ppm): 53.4%
The pathological change of caecum: birds scored + (66.0 ppm): 0
The pathological change of caecum: birds scored ++ (66.0 ppm): 0
The pathological change of caecum: birds scored +++ (66.0 ppm): 0
The pathological change of caecum: birds scored ++++ (66.0 ppm): 3
The pathological change of caecum: birds scored - (66.0 ppm): 0
No. of blood drops/per bird (66.0 ppm, day 4): 0.6
No. of blood drops/per bird (66.0 ppm, day 5): 8.0
No. of deaths (66.0 ppm, day 5): 0
No. of blood drops/per bird (66.0 ppm, day 6): 10.0
No. of deaths (66.0 ppm, day 6): 0
No. of blood drops/per bird (66.0 ppm, day 7): 4.6
No. of deaths (66.0 ppm, day 7): 0
No. of deaths (66.0 ppm, day 8): 0

Source: US4069316A, “Method for producing antibiotic T-42082 and antibiotic T-42082” (Takeda Chemical Industries, Ltd., priority 1976, dated 1978)
